The source of these data is patent publication US20220387602A1, “BIFUNCTIONAL DEGRADERS AND THEIR METHODS OF USE” (NOVARTIS AG, priority 2019, published 2022).

Experiment [1] deals with T1, CRBN (Homo sapiens, UniProt Q96SW2). Nature of the experiment: CRBN displacement assay Format 1 (fluorescence polarization, BodipyFL-lenalidomide probe Compound HH). Type of experiment: binding. The method, then: Compounds were tested in the following biochemical and cellular assays.
BodipyFL conjugated lenalidomide compound HH was used as a fluorescent probe. […] Protein and substrate were diluted in assay buffer.
All protein and probe containing solutions were handled in ‘Maxymum Recovery’ tubes (Axygen Scientific Inc., Union City, USA). […] For the plate measurements a PHERAstar reader (BMG Labtech, Offenburg, Germany) was used. The instrument was equipped with a specific optics module containing filters and dichoic mirrors for measuring the fluorescence polarization-type assay. With this module, the fluorescence of the Bodipy FL-based probe was excited at 485 nm and the emissions of the product were measured at 520 nm. The fluorescence in each well was excited by 10 flashes per measurement.
For the determination of AC50 values, the assays were performed at room temperature in 384-well plates with a total assay volume of 10.1 μL per well. The test compound was dissolved in 90% (v/v) DMSO/water. For the assays, 100 nL of the 90% (v/v) DMSO/water solution or compound solution were added per well, followed by the addition of 5 μL protein solution (protein in 1× assay buffer).
The final assay concentration of the protein was nominally 100 nM. After 45 minutes of pre-incubation at room temperature, the competition for binding was started by the addition of 5 μL probe solution (probe dissolved in assay buffer). The final concentration of the probes in the assays was 5 nM. After the addition of the probe solution, the final DMSO concentration in the assay was 0.9% (v/v). The effect of the probe on the pre-established compound-protein complex equilibrium was determined after 45 minutes (t=45 min). The AC50 value was calculated from the plot of percentage of protein saturation versus the test compound concentration by a logistics fit according to: y=A^2+(A^1−A^2)/(1+(x/AC50)^p), where y is the %-saturation value at the test compound concentration, x. A^1 is the lowest saturation value, i.e., 0%, and A^2 the maximum saturation value, i.e. 100%. The exponent, p, is the Hill coefficient.
For orientation: In fluorescence polarisation assays a small probe gives low polarisation when free and higher when bound to something large.

The target of the next experiment is T2, BTK (Homo sapiens, UniProt Q06187).
T2 construct: the BTK open reading frame (ORF) was first shuttled from a pcDNA-DEST40-BTK vector; expressed in transfected cells; host or cells: HEK293A (Invitrogen R70507), lentiviral transduction, blasticidin selection
In words: BTK-GFP protein abundance flow cytometry assay in HEK293A. Type of experiment: cell-based. The following applies: for BTK degradation Amax: % protein remaining at the concentration at which maximum degradation is seen, HEK293A; for BTK degradation Amax / DC50: 24 h; for DC50: concentration at which 50% maximal degradation was observed, HEK293A BTK-GFP sensor cells. As for the experimental part: Degradation of BTK, CSK, ABL2, EPHA4 and YES1 was measured in HEK293A cells (Invitrogen R70507) expressing either BTK-GFP and RFP, CSK-GFP and mCherry, GFP-ABL2 and mCherry, EPHA4-GFP and mCherry, or YES1-GFP and mCherry from a stably integrated bicistronic BTK-GFP-iresRFP, CSK-GFP-CHYSEL-mCherry, GFP-ABL2-CHYSEL-mCherry, EPHA4-GFP-CHYSEL-mCherry, or YES1-GFP-CHYSEL-mCherry construct, respectively. Reduction of the GFP signal measured by flow cytometry served as readout for BTK, CSK, ABL2, EPHA4 and YES1 degradation after degrader treatment.
The mix was incubated for another 20 min at RT and then added on 1 mL of a freshly prepared suspension of HEK293FT cells in a well of a 6-well plate (concentration 1.2×10^6 cells/mL). 1 day after transfection, the medium was replaced with 1.5 mL of complete growth medium (DMEM high Glucose+10% FCS+1% L-Glutamine+1% NEAA+1% NaPyr.). 48 h post transfection supernatant containing viral transducing particles was collected and frozen at −80° C.
Infection was performed with 90 μL of collected supernatant containing viral transducing particles in 1 mL medium including 8 µg/mL polybrene. 24 h post infection, stably transfected cells were selected with blasticidin at a concentration of 8 μg/mL referred to as stable HEK293A sensor cells.
Stable HEK293A sensor cells were maintained in complete growth medium (DMEM high Glucose+10% FCS+1% L-Glutamine+1% NEAA+1% NaPyr.) with passaging performed twice per week. On Day 0, stable HEK293A sensor cells were seeded at 10,000 cells/well in a 96-well microtiter plate in 260 μL complete medium. On Day 1, cells were treated in duplicate with 10-point 1:3 dilution series of compound using the HP D300 Digital Dispenser (Tecan). DMSO concentrations were normalized across the plate to 0.1%. On Day 2, after 24 h of incubation at 37° C., treatment media was discarded, cells rinsed with 100 μL/well PBS and then detached using 40 μL trypsin/well for 5 min. Trypsin was neutralized with 100 μL/well PBS+20% FCS). Flow cytometry was performed on the samples using the BD FACS CANTO II (Becton Dickinson). Cell identification was then performed using forward (FSC) vs. side scatter (SSC) plots. Single cell discrimination is performed using SSC-Width (SSC-W) vs. SSC-Height (SSC-H) plots. Median GFP values for 5,000 single cells are used to determine BTK levels. Median GFP values from HEK293 Å-iresRFP are used as a background signal and thus defining 0% BTK signal. Median GFP values from DMSO treated HEK293 Å-BTK-GFP-iresRFP are used to define 100% BTK signal for subsequent DC50 curves (concentration at 50% BTK degradation). GFP and RFP are read in the channels called FITC and PE, respectively.
Concentration response curves plotting relative reduction of the GFP signal (measured by flow cytometry) versus 10 compound concentrations (starting concentration 10 μM, 3 fold dilution steps) of the compounds allowed generation of DC50 values. Protein abundance measured for the second generation vectors having a chysel was done in close analogy to the above described method for measuring BTK abundance.
Table 5 columns are defined as follows: DC50 refers to the concentration at which 50% maximal degradation was observed; deg Amax is the extent of degradation and the value refers to the % protein remaining at the concentration at which maximum degradation is seen.
On the technique in general: In flow cytometry, cells or beads pass a laser one at a time.

For experiment [2], the target named is T1, CRBN. In words: CRBN displacement assay Format 2a (fluorescence polarization, 1536-well, Envision reader). Type of experiment: binding. Put shortly:
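Competition format: compound first equilibrated with CRBN protein (nominally 40 nM) for 45 min at RT, then challenged 45 min with 5 nM BodipyFL-conjugated lenalidomide tracer. FP measured at 480 nm excitation/535 nm emission; AC50 derived by four-parameter logistic fit of %-saturation.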

Where [3] appears, read: concentration at which 50% of reference probe Compound HH is displaced, 40 nM protein, 5 nM probe, read-out: CRBN AC50 [μM] Format 2a.
The mark [4] stands for this setting: concentration at which 50% of reference probe Compound HH is displaced, 100 nM protein, 5 nM probe, Table 4, read-out: CRBN AC50 [μM] Format 1.

Each structure is given as a SMILES string. “Also recorded” adds a separate entry of the source.

T2 sequence (Q06187 whole entry): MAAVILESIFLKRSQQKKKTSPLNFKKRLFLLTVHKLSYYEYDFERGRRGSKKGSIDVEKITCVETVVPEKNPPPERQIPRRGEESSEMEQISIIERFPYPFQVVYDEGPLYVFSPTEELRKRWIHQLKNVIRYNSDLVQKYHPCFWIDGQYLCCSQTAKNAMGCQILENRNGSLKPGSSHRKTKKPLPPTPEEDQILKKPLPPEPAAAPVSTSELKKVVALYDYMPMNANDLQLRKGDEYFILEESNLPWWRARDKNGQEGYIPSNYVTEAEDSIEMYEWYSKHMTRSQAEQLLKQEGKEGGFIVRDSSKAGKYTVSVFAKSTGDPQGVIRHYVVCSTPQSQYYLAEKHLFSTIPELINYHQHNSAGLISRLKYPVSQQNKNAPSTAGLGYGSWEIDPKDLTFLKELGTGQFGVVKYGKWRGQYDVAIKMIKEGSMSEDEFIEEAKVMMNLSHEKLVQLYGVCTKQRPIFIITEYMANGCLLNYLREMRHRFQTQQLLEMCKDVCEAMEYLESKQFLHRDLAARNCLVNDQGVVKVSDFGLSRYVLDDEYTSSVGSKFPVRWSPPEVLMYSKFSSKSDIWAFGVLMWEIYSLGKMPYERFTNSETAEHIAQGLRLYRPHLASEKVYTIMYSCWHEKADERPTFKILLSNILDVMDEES
T1 sequence (Q96SW2 whole entry): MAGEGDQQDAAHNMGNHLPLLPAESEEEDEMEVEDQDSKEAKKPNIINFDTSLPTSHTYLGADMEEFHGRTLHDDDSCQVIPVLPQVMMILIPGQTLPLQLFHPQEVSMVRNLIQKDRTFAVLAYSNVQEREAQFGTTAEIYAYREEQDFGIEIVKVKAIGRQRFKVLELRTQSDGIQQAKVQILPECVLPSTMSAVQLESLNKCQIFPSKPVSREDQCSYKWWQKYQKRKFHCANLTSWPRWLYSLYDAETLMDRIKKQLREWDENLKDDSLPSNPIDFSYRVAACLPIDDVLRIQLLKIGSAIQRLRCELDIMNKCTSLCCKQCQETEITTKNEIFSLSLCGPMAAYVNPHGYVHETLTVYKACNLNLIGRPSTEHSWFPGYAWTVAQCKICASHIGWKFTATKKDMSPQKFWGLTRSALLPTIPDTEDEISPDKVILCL

What is called AC50 is the concentration giving half of the maximal activity seen. For orientation: DC50 means the concentration at which degradation of the target reaches its halfway point. Higher therefore signals degradation only at high concentration. Consider `COc1ccc(C(=O)N2CCOC3(CCN(Cc4ccc(-c5cc6c(-c7cc(F)cc(NC(=O)c8ccc(C(C)(C)O)cc8F)c7C)ncnc6[nH]5)cc4)CC3)C2)cc1N1CCC(=O)NC1=O` [Compound 01, N-(3-(6-(4-((4-(3-(2,4-dioxotetrahydropyrimidin-1(2H)-yl)-4-methoxybenzoyl)-1-oxa-4,9-diazaspiro[5.5]undecan-9-yl)methyl)phenyl)-7H-pyrrolo[2,3-d]pyrimidin-4-yl)-5-fluoro-2-methylphenyl)-2-fluoro-4-(2-hydroxypropan-2-yl)benzamide], for which the AC50 at CRBN [1] is 1.59 µM. At BTK, the “BTK degradation Amax” value is 98% and the DC50 is above 3.33 µM. The “BTK degradation” value at BTK (extent of BTK degradation as stated in the text) is recorded as “no significant BTK degradation was observed; also recorded: no degradation of BTK was observed”.

On CRBN [1], `Cc1c(NC(=O)c2ccc(C(C)(C)O)cc2F)cc(F)cc1-c1ncnc2[nH]c(-c3ccc(CN4CCN(C(=O)N5CCN(CCC#Cc6cccc(N7CCC(=O)NC7=O)c6)CC5)CC4)cc3)cc12` [Compound 03, N-(3-(6-(4-((4-(4-(4-(3-(2,4-dioxotetrahydropyrimidin-1(2H)-yl)phenyl)but-3-yn-1-yl)piperazine-1-carbonyl)piperazin-1-yl)methyl)phenyl)-7H-pyrrolo[2,3-d]pyrimidin-4-yl)-5-fluoro-2-methylphenyl)-2-fluoro-4-(2-hydroxypropan-2-yl)benzamide] displayed an AC50 of 0.257 µM. For the same compound, at BTK, the “BTK degradation Amax” value amounted to 41.9% and the DC50 is 0.0248 µM.

In the case of `Cc1ccc(N2CCC(=O)NC2=O)cc1CNC(=O)CCCCN(C)Cc1ccc(-c2cc3c(-c4cc(F)cc(NC(=O)c5ccc(C(C)(C)O)cc5F)c4C)ncnc3[nH]2)cc1` [Compound 08, N-(3-(6-(4-(((5-((5-(2,4-dioxotetrahydropyrimidin-1(2H)-yl)-2-methylbenzyl)amino)-5-oxopentyl)(methyl)amino)methyl)phenyl)-7H-pyrrolo[2,3-d]pyrimidin-4-yl)-5-fluoro-2-methylphenyl)-2-fluoro-4-(2-hydroxypropan-2-yl)benzamide], half-maximal activity at CRBN [1] (AC50) was put at 2.1 µM. Moreover, on BTK, the “BTK degradation Amax” value turned out to be 55.1% and the DC50 was above 3.33 µM.

As for `Cc1c(NC(=O)c2ccc(C(C)(C)O)cc2F)cc(F)cc1-c1ncnc2[nH]c(-c3ccc(CN4CCN(CCNC(=O)COc5cccc(N6CCC(=O)NC6=O)c5)CC4)cc3)cc12` [Compound 09, N-(3-(6-(4-((4-(2-(2-(3-(2,4-dioxotetrahydropyrimidin-1(2H)-yl)phenoxy)acetamido)ethyl)piperazin-1-yl)methyl)phenyl)-7H-pyrrolo[2,3-d]pyrimidin-4-yl)-5-fluoro-2-methylphenyl)-2-fluoro-4-(2-hydroxypropan-2-yl)benzamide], the activity on CRBN [1] was half-maximal at 1.4 µM (AC50). Further, on BTK, the “BTK degradation Amax” value worked out at 3.9% and it took 0.0032 µM to reach half-maximal degradation (DC50).

With `Cc1ccc(OCC(=O)N2CCN(CCOc3ccc(-c4cc5c(-c6cc(F)cc(NC(=O)c7ccc(C(C)(C)O)cc7F)c6C)ncnc5[nH]4)cc3)CC2)cc1N1CCC(=O)NC1=O` [Compound 10, N-(3-(6-(4-(2-(4-(2-(3-(2,4-Dioxotetrahydropyrimidin-1(2H)-yl)-4-methylphenoxy)acetyl)piperazin-1-yl)ethoxy)phenyl)-7H-pyrrolo[2,3-d]pyrimidin-4-yl)-5-fluoro-2-methylphenyl)-2-fluoro-4-(2-hydroxypropan-2-yl)benzamide], the AC50 at CRBN [1] turned out to be 0.466 µM. For the same compound, at BTK, the “BTK degradation Amax” value was determined as 3.1% and the DC50 came to 0.0033 µM.

On CRBN [1], `Cc1c(NC(=O)c2ccc(C(C)(C)O)cc2F)cc(F)cc1-c1ncnc2[nH]c(-c3ccc(CN4CCC(CCNC(=O)COc5cccc(N6CCC(=O)NC6=O)c5)CC4)cc3)cc12` [Compound 11, N-(3-(6-(4-((4-(2-(2-(3-(2,4-Dioxotetrahydropyrimidin-1(2H)-yl)phenoxy)acetamido)ethyl)piperidin-1-yl)methyl)phenyl)-7H-pyrrolo[2,3-d]pyrimidin-4-yl)-5-fluoro-2-methylphenyl)-2-fluoro-4-(2-hydroxypropan-2-yl)benzamide] registered a concentration at half-maximal activity (AC50) of 0.599 µM. In addition, at BTK, the “BTK degradation Amax” value is reported as 2.3% and half-maximal degradation (DC50) was put at 0.0022 µM.

On to `Cc1ccc(S(=O)(=O)NCCCCCN)cc1N1CCC(=O)NC1=O` [ILB-53, N-(5-aminopentyl)-3-(2,4-dioxotetrahydropyrimidin-1(2H)-yl)-4-methylbenzenesulfonamide], for which the values for the AC50 on CRBN [2] (setting [3]) and on CRBN [1] (setting [4]) were 2.16 µM and 14.9 µM, respectively.

On to `O=C1CCN(c2ccc(OCC(=O)N3CCC(OC4CCNCC4)CC3)cc2)C(=O)N1` [ILB-55, 1-(4-(2-Oxo-2-(4-(piperidin-4-yloxy)piperidin-1-yl)ethoxy)phenyl)dihydropyrimidine-2,4(1H,3H)-dione], for which the AC50 came out at 4.04 µM on CRBN [2] and 14.4 µM at CRBN [1].

For the compound `COc1ccc(C(=O)N2CCC3(CCNCC3)CC2)cc1N1CCC(=O)NC1=O` [ILB-56, 1-(2-methoxy-5-(3,9-diazaspiro[5.5]undecane-3-carbonyl)phenyl)dihydropyrimidine-2,4(1H,3H)-dione], the AC50 at CRBN [2] is 0.23 µM; on CRBN [1], 1.26 µM.

With `COc1ccc(C(=O)N2CCC(OC3CCNCC3)CC2)cc1N1CCC(=O)NC1=O` [ILB-59, 1-(2-methoxy-5-(4-(piperidin-4-yloxy)piperidine-1-carbonyl)phenyl)dihydropyrimidine-2,4(1H,3H)-dione], the AC50 on CRBN [2] amounted to 0.34 µM; on CRBN [1], 1.36 µM.

For `COc1cc(C(=O)O)ccc1N1CCC(=O)NC1=O` [ILB-81, 4-(2,4-dioxotetrahydropyrimidin-1(2H)-yl)-3-methoxybenzoic acid], the AC50 turned out to be 2.38 µM on CRBN [2] (setting [3]) and 12.3 µM at CRBN [1] (setting [4]).
